From PubChem BioAssay (NCI)
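Protocol summary: plate cells (96-well), add compound at 5 concentrations, incubate 48 h, interpolate endpoints linearly. TGI denotes the concentration required for complete inhibition of growth.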

What was measured:
Test in all cases: NCI tumour cell line growth inhibition, 48 h
786-0 renal = system: 786-0 renal
A498 renal = system: A498 renal
A549 NSCLC = system: A549 NSCLC
ACHN renal = system: ACHN renal
BT-549 breast = system: BT-549 breast
CAKI-1 renal = system: CAKI-1 renal
CCRF-CEM leukemia = system: CCRF-CEM leukemia
COLO 205 colon = system: COLO 205 colon
EKVX NSCLC = system: EKVX NSCLC
HCC-2998 colon = system: HCC-2998 colon
HCT-116 colon = system: HCT-116 colon
HCT-15 colon = system: HCT-15 colon
HL-60(TB) leukemia = system: HL-60(TB) leukemia
HOP-62 NSCLC = system: HOP-62 NSCLC
HOP-92 NSCLC = system: HOP-92 NSCLC
HS 578T breast = system: HS 578T breast
HT29 colon = system: HT29 colon
IGROV1 ovarian = system: IGROV1 ovarian
K-562 leukemia = system: K-562 leukemia
KM12 colon = system: KM12 colon
LOX IMVI melanoma = system: LOX IMVI melanoma
M14 melanoma = system: M14 melanoma
MALME-3M melanoma = system: MALME-3M melanoma
MCF7 breast = system: MCF7 breast
MDA-MB-231 breast = system: MDA-MB-231 breast
MDA-MB-435 = system: MDA-MB-435
MDA-N = system: MDA-N
MOLT-4 leukemia = system: MOLT-4 leukemia
NCI-H226 lung = system: NCI-H226 lung
NCI-H23 lung = system: NCI-H23 lung
NCI-H460 lung = system: NCI-H460 lung
NCI-H522 lung = system: NCI-H522 lung
NCI/ADR-RES ovarian = system: NCI/ADR-RES ovarian
OVCAR-3 ovarian = system: OVCAR-3 ovarian
OVCAR-4 ovarian = system: OVCAR-4 ovarian
OVCAR-5 ovarian = system: OVCAR-5 ovarian
OVCAR-8 ovarian = system: OVCAR-8 ovarian
PC-3 prostate = system: PC-3 prostate
RPMI-8226 leukemia = system: RPMI-8226 leukemia
RXF 393 renal = system: RXF 393 renal
SF-268 CNS = system: SF-268 CNS
SF-295 CNS = system: SF-295 CNS
SK-MEL-2 melanoma = system: SK-MEL-2 melanoma
SK-MEL-28 melanoma = system: SK-MEL-28 melanoma
SK-MEL-5 melanoma = system: SK-MEL-5 melanoma
SK-OV-3 ovarian = system: SK-OV-3 ovarian
SN12C renal = system: SN12C renal
SNB-19 CNS = system: SNB-19 CNS
SNB-75 CNS = system: SNB-75 CNS
SR leukemia = system: SR leukemia
SW-620 colon = system: SW-620 colon
TK-10 renal = system: TK-10 renal
U251 CNS = system: U251 CNS
UACC-257 melanoma = system: UACC-257 melanoma
UACC-62 melanoma = system: UACC-62 melanoma
UO-31 renal = system: UO-31 renal
DU-145 prostate = system: DU-145 prostate
SF-539 CNS = system: SF-539 CNS

## CSc1cc(Cl)c(C)cc1S(=O)(=O)NC(=O)Nc1ccc(Cl)cc1
786-0 renal
  TGI: > 100 µM
A498 renal
  TGI: > 100 µM
A549 NSCLC
  TGI: > 100 µM
ACHN renal
  TGI: > 100 µM
BT-549 breast
  TGI: > 100 µM
CAKI-1 renal
  TGI: > 100 µM
CCRF-CEM leukemia
  TGI: 39.2 µM
COLO 205 colon
  TGI: 29.8 µM
EKVX NSCLC
  TGI: 87.8 µM
HCC-2998 colon
  TGI: 38.4 µM
HCT-116 colon
  TGI: 35.7 µM
HCT-15 colon
  TGI: 84.1 µM
HL-60(TB) leukemia
  TGI: 28 µM
HOP-62 NSCLC
  TGI: 63.2 µM
HOP-92 NSCLC
  TGI: 45.5 µM
HS 578T breast
  TGI: > 100 µM
HT29 colon
  TGI: > 100 µM
IGROV1 ovarian
  TGI: > 100 µM
K-562 leukemia
  TGI: > 100 µM
KM12 colon
  TGI: 80.8 µM
LOX IMVI melanoma
  TGI: 52.5 µM
M14 melanoma
  TGI: > 100 µM
MALME-3M melanoma
  TGI: 85.1 µM
MCF7 breast
  TGI: > 100 µM
MDA-MB-231 breast
  TGI: > 100 µM
MDA-MB-435
  TGI: 88 µM
MDA-N
  TGI: > 100 µM
MOLT-4 leukemia
  TGI: 40.9 µM
NCI-H226 lung
  TGI: 45.1 µM
NCI-H23 lung
  TGI: 40.4 µM
NCI-H460 lung
  TGI: > 100 µM
NCI-H522 lung
  TGI: 41.4 µM
NCI/ADR-RES ovarian
  TGI: 97.1 µM
OVCAR-3 ovarian
  TGI: 74 µM
OVCAR-4 ovarian
  TGI: > 100 µM
OVCAR-5 ovarian
  TGI: > 100 µM
OVCAR-8 ovarian
  TGI: > 100 µM
PC-3 prostate
  TGI: > 100 µM
RPMI-8226 leukemia
  TGI: > 100 µM
RXF 393 renal
  TGI: 51.7 µM
SF-268 CNS
  TGI: > 100 µM
SF-295 CNS
  TGI: > 100 µM
SK-MEL-2 melanoma
  TGI: 49 µM
SK-MEL-28 melanoma
  TGI: > 100 µM
SK-MEL-5 melanoma
  TGI: 64.9 µM
SK-OV-3 ovarian
  TGI: > 100 µM
SN12C renal
  TGI: > 100 µM
SNB-19 CNS
  TGI: 92 µM
SNB-75 CNS
  TGI: 62.1 µM
SR leukemia
  TGI: > 100 µM
SW-620 colon
  TGI: 92.7 µM
TK-10 renal
  TGI: 81.5 µM
U251 CNS
  TGI: > 100 µM
UACC-257 melanoma
  TGI: 79.8 µM
UACC-62 melanoma
  TGI: 14.8 µM
UO-31 renal
  TGI: 31.5 µM

## FC(F)(F)c1ccc(C2=N/S(c3ccccc3)=N\C(c3ccc(C(F)(F)F)cc3)=N/S(c3ccccc3)=N\2)cc1 (stereo not given)
786-0 renal
  TGI: > 100 µM
A549 NSCLC
  TGI: > 100 µM
ACHN renal
  TGI: > 100 µM
BT-549 breast
  TGI: > 100 µM
CAKI-1 renal
  TGI: > 100 µM
CCRF-CEM leukemia
  TGI: > 100 µM
COLO 205 colon
  TGI: > 100 µM
DU-145 prostate
  TGI: > 100 µM
EKVX NSCLC
  TGI: > 100 µM
HCC-2998 colon
  TGI: > 100 µM
HCT-116 colon
  TGI: > 100 µM
HCT-15 colon
  TGI: > 100 µM
HOP-92 NSCLC
  TGI: > 100 µM
HS 578T breast
  TGI: > 100 µM
HT29 colon
  TGI: > 100 µM
IGROV1 ovarian
  TGI: > 100 µM
K-562 leukemia
  TGI: > 100 µM
KM12 colon
  TGI: > 100 µM
LOX IMVI melanoma
  TGI: > 100 µM
M14 melanoma
  TGI: > 100 µM
MALME-3M melanoma
  TGI: > 100 µM
MCF7 breast
  TGI: > 100 µM
MDA-MB-231 breast
  TGI: > 100 µM
MDA-MB-435
  TGI: > 100 µM
MDA-N
  TGI: > 100 µM
MOLT-4 leukemia
  TGI: > 100 µM
NCI-H23 lung
  TGI: > 100 µM
NCI-H460 lung
  TGI: > 100 µM
NCI-H522 lung
  TGI: > 100 µM
NCI/ADR-RES ovarian
  TGI: > 100 µM
OVCAR-3 ovarian
  TGI: > 100 µM
OVCAR-4 ovarian
  TGI: > 100 µM
OVCAR-5 ovarian
  TGI: > 100 µM
OVCAR-8 ovarian
  TGI: > 100 µM
PC-3 prostate
  TGI: > 100 µM
RPMI-8226 leukemia
  TGI: > 100 µM
RXF 393 renal
  TGI: > 100 µM
SF-268 CNS
  TGI: > 100 µM
SF-295 CNS
  TGI: > 100 µM
SF-539 CNS
  TGI: > 100 µM
SK-MEL-2 melanoma
  TGI: > 100 µM
SK-MEL-28 melanoma
  TGI: > 100 µM
SK-MEL-5 melanoma
  TGI: > 100 µM
SK-OV-3 ovarian
  TGI: > 100 µM
SN12C renal
  TGI: > 100 µM
SNB-19 CNS
  TGI: > 100 µM
SNB-75 CNS
  TGI: > 100 µM
SR leukemia
  TGI: > 100 µM
SW-620 colon
  TGI: > 100 µM
TK-10 renal
  TGI: > 100 µM
U251 CNS
  TGI: > 100 µM
UACC-257 melanoma
  TGI: > 100 µM
UACC-62 melanoma
  TGI: > 100 µM
UO-31 renal
  TGI: > 100 µM
